Results: patent US20060258681A1, “3-Z-[1-(4-(N-((4-Methyl-piperazin-1-yl)-methylcarbonyl)-N-methyl-amino)-anilino)-1-phenyl-methylene]-6-methoxycarbonyl-2-indolinone-monoethanesulphonate and the use thereof as a pharmaceutical composition” (priority 2002, published 2006)

How the values were obtained:
Her-2 = Her-2 (Homo sapiens, UniProt P04626); test: standard known kinase inhibition assay, Her-2; type: biochemical
Text: (§1) Experimental studies have shown that a metabolite of the compound 3-Z-[1-(4-(N-((4-methyl-piperazin-1-yl)-methylcarbonyl)-N-methyl-amino)-anilino)-1-phenyl-methylene]-6-methoxycarbonyl-2-indolinone-monoethanesulphonate is the de-esterified 3-Z-[1-(4-(N-((4-methyl-piperazin-1-yl)-carbonyl)-N-methyl-amino)-anilino)-1-phenyl-methylene]-6-carboxy-2-indolinone. The in-vitro inhibitory activity of this metabolite on several kinases has been evaluated, using standard known kinase inhibition assays as well as a standard known cellular proliferation inhibition assay (inhibition of the proliferation of Human Umbilical Cord Endothelial Cells stimulated by the VEGF, the so-called “HUVEC cellular assay”). These experimental results have shown that this metabolite inhibits several kinases, such as VEGFR-2, VEGFR-3, Her-2, FGFR-1, PDGFR-alpha or InsR, as well as the proliferation of HUVEC VEGF stimulated cells.

[1] = test system: Human Umbilical Cord Endothelial Cells stimulated by the VEGF; test: HUVEC cellular assay (cellular proliferation inhibition); type: cell-based
Text: as §1

VEGFR-3 = VEGFR-3 (Homo sapiens, UniProt P35916); test: standard known kinase inhibition assay, VEGFR-3; type: biochemical
VEGFR-3, sequence (P35916 25-1363, species assumed): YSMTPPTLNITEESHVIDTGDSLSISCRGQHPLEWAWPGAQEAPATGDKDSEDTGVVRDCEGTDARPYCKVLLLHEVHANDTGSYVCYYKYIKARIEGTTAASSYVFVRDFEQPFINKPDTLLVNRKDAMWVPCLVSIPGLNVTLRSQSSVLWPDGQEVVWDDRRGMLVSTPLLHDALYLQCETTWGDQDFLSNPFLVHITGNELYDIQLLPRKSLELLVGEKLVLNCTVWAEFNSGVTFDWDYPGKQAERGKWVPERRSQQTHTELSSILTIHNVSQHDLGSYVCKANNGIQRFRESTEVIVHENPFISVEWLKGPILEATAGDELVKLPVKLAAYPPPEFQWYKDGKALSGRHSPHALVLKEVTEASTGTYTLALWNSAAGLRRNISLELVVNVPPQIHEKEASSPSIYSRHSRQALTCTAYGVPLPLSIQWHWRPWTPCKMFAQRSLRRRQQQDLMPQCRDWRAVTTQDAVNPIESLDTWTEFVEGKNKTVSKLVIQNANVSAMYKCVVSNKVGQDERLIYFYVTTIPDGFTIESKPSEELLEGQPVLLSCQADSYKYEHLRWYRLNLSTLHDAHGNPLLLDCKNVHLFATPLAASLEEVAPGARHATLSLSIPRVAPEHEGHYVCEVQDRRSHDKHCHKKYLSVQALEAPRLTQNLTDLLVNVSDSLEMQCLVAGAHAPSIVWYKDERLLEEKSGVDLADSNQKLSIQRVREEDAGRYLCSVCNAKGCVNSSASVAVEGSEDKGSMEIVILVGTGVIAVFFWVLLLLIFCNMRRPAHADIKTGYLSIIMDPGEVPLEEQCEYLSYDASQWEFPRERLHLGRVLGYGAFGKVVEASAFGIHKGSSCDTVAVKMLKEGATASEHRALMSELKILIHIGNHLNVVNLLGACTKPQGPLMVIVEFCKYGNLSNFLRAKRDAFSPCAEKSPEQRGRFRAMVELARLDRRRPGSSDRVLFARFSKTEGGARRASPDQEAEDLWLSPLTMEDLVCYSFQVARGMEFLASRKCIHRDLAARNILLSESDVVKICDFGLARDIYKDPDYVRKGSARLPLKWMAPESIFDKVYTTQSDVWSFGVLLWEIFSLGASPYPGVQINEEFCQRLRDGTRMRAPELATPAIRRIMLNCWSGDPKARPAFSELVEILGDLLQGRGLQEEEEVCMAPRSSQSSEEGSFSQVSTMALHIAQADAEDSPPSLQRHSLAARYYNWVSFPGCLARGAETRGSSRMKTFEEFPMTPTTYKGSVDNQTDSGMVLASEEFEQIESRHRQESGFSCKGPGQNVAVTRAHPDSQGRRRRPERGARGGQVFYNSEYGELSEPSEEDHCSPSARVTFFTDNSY
Text: as §1

PDGFR-alpha = PDGFR-alpha (Homo sapiens, UniProt P16234); test: standard known kinase inhibition assay, PDGFR-alpha; type: biochemical
Text: as §1

FGFR-1 = FGFR-1 (Homo sapiens, UniProt P11362); test: standard known kinase inhibition assay, FGFR-1; type: biochemical
FGFR-1, sequence (P11362 22-822, species assumed): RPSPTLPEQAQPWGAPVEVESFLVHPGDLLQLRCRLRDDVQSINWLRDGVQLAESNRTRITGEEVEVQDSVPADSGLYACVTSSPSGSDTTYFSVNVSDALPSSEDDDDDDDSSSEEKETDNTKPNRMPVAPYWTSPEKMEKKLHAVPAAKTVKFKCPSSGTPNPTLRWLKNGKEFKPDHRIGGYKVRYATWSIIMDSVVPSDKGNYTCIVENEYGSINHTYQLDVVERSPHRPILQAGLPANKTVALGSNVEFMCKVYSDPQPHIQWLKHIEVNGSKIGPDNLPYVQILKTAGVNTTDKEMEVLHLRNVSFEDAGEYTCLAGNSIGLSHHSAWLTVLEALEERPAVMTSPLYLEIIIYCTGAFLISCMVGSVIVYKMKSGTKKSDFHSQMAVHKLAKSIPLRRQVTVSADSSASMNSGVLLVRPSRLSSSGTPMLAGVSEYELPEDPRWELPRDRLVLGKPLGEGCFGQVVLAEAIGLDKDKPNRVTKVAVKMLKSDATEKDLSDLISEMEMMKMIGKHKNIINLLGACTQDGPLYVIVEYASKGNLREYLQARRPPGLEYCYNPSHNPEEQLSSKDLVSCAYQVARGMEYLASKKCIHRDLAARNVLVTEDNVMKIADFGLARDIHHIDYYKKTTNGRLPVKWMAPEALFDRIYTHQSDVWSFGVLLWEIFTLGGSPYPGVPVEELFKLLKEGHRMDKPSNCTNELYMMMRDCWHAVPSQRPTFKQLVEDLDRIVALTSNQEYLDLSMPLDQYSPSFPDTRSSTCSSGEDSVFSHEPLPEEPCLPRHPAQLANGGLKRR
Text: as §1

InsR = InsR (Homo sapiens, UniProt P06213); test: standard known kinase inhibition assay, InsR; type: biochemical
InsR, sequence (P06213 28-1382, species assumed): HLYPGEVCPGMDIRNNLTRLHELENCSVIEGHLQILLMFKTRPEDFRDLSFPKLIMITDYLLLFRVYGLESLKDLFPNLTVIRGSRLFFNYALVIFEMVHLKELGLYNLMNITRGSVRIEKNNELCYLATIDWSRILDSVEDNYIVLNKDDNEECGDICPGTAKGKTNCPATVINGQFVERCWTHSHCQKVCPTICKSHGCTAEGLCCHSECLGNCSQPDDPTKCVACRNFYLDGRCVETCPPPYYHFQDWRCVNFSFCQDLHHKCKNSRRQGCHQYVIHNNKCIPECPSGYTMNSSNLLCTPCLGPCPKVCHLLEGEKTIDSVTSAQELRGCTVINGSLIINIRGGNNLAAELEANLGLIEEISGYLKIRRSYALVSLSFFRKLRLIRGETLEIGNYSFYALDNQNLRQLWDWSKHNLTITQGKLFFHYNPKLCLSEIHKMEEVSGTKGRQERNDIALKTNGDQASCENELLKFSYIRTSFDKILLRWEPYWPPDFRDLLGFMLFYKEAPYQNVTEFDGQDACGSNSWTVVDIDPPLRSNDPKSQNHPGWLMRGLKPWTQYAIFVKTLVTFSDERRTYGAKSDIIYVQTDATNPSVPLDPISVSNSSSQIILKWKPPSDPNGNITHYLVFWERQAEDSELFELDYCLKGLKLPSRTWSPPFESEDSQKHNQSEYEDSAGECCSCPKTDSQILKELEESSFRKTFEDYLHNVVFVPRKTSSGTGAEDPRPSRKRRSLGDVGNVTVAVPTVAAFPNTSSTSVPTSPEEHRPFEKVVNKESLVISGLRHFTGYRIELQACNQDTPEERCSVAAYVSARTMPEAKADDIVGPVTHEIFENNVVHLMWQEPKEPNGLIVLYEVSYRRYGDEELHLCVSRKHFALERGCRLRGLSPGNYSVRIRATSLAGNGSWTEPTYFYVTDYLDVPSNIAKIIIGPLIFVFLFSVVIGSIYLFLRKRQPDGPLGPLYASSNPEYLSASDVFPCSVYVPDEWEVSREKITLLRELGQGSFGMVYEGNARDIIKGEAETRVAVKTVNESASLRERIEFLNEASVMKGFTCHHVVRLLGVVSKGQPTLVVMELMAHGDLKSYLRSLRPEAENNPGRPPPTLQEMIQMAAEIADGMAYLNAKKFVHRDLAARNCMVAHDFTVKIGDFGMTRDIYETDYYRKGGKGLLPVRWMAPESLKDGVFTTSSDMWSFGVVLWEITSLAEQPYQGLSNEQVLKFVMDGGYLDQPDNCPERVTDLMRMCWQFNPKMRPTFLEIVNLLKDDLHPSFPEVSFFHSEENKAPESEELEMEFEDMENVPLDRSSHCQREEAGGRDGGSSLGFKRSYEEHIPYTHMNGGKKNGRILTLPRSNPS
Text: as §1

VEGFR-2 = VEGFR-2 (Homo sapiens, UniProt P35968); test: standard known kinase inhibition assay, VEGFR-2; type: biochemical
Text: as §1

hygroscopicity = type: physicochemical
[2] = amorphisation during grinding and compression; type: physicochemical
[3] = solubility in physiologically acceptable solvents; type: physicochemical

Her-2, sequence (P04626 23-1255, species assumed): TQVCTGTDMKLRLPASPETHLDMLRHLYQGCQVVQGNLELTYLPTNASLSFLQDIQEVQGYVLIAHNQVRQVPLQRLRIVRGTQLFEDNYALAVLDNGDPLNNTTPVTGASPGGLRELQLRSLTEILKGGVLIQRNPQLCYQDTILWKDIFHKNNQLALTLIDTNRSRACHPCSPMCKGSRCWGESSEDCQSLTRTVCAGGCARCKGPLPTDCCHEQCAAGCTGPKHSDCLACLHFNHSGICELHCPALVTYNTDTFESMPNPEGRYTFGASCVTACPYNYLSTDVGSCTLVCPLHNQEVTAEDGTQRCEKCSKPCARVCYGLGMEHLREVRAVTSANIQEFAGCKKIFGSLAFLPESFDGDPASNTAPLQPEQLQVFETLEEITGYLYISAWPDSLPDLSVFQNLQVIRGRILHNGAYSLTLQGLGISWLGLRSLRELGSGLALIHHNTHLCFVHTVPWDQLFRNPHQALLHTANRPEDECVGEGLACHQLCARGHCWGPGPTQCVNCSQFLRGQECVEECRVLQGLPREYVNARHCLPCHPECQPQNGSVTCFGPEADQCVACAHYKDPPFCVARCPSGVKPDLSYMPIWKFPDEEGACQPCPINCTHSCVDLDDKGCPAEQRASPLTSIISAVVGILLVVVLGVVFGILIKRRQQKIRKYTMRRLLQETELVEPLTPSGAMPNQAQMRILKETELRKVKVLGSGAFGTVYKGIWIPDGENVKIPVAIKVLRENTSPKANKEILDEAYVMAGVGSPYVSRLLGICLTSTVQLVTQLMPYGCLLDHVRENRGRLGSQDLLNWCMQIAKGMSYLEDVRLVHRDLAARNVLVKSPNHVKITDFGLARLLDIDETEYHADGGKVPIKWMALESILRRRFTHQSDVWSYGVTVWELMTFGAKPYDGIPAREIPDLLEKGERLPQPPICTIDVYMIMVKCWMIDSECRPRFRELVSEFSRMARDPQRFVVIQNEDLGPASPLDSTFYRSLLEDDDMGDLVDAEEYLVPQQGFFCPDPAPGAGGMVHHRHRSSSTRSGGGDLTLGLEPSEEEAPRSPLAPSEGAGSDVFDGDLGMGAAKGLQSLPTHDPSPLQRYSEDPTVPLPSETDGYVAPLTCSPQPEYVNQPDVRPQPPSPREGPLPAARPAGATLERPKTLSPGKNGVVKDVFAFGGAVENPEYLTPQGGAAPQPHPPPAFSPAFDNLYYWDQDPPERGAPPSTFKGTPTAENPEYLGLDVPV

SMILES | in-vitro inhibitory activity on Her-2 (Her-2) | inhibition of the proliferation of HUVEC VEGF stimulated cells [1] | in-vitro inhibitory activity on VEGFR-3 (VEGFR-3) | in-vitro inhibitory activity on PDGFR-alpha (PDGFR-alpha) | in-vitro inhibitory activity on FGFR-1 (FGFR-1) | in-vitro inhibitory activity on InsR (InsR) | in-vitro inhibitory activity on VEGFR-2 (VEGFR-2) | hygroscopicity (hygroscopicity) | amorphisation [2] | solubility [3]
CN1CCN(C(=O)N(C)c2ccc(N/C(=C3\C(=O)Nc4cc(C(=O)O)ccc43)c3ccccc3)cc2)CC1 [3-Z-[1-(4-(N-((4-methyl-piperazin-1-yl)-carbonyl)-N-methyl-amino)-anilino)-1-phenyl-methylene]-6-carboxy-2-indolinone] | inhibits | inhibits | inhibits | inhibits | inhibits | inhibits | inhibits |  |  | 
CCS(=O)(=O)O.COC(=O)c1ccc2c(c1)NC(=O)/C2=C(\Nc1ccc(N(C)C(=O)CN2CCN(C)CC2)cc1)c1ccccc1 [monoethanesulphonate, 3-Z-[1-(4-(N-((4-methyl-piperazin-1-yl)-methylcarbonyl)-N-methyl-amino)-anilino)-1-phenyl-methylene]-6-methoxycarbonyl-2-indolinone-monoethanesulphonate] |  |  |  |  |  |  |  | not hygroscopic | low amorphisation | readily soluble
